Measurements: patent US9670184B2, “Amorphous allisartan isoproxil, preparation method therefor, and pharmaceutical composition containing amorphous allisartan isoproxil” (SHENZHEN SALUBRIS PHARMACEUTICALS CO. LTD, priority 2013, dated 2017)

Key:
Type in all cases: physicochemical
[1] = Bulk density of powders, measurement in a graduated cylinder (Method I of Bulk Density, Ph. Eur); details: powder sieved through 100-mesh screen
From the text: (§1) The powders of experiment 1 and 3 were pulverized and then sieved through a 100-mesh screen to obtain powders with particle size similar to the crystal powder. Then the repose angles of the powders were detected respectively by using a fixed-funnel method; and the bulk densities of the powders were detected respectively by using measurement in a graduated cylinder (Method I of Bulk Density disclosed in Ph. Eur), and the results were shown in the table below: […]

[2] = Electrostatic phenomenon of the dried powder (observation); details: powder after drying
[3] = Repose angle of powders by fixed-funnel method; details: powder sieved through 100-mesh screen
From the text: as §1

Row | SMILES | Bulk Density [1] [g/mL] | Electrostatic phenomenon [2] | Repose Angle [3]
1 | CCCCc1nc(Cl)c(C(=O)OCOC(=O)OC(C)C)n1Cc1ccc(-c2ccccc2-c2nnn[nH]2)cc1 [Amorphous allisartan isoproxil obtained from experiment 1] [2-butyl-4-chloro-1-[2′-(1H-tetrazol-5-yl)-1,1′-biphenyl-methyl]-imidazole-5-carboxylic acid, 1-[(isopropoxy)-carbonyloxy]methyl ester] | 0.77 | no obvious electrostatic phenomenon | 33-36 °
2 | CCCCc1nc(Cl)c(C(=O)OCOC(=O)OC(C)C)n1Cc1ccc(-c2ccccc2-c2nnn[nH]2)cc1 [Amorphous allisartan isoproxil obtained from experiment 3] [2-butyl-4-chloro-1-[2′-(1H-tetrazol-5-yl)-1,1′-biphenyl-methyl]-imidazole-5-carboxylic acid, 1-[(isopropoxy)-carbonyloxy]methyl ester] | 0.79 | no obvious electrostatic phenomenon | 33-36 °
3 | CCCCc1nc(Cl)c(C(=O)OCOC(=O)OC(C)C)n1Cc1ccc(-c2ccccc2-c2nnn[nH]2)cc1 [Experiment 2, 2-butyl-4-chloro-1-[2′-(1H-tetrazol-5-yl)-1,1′-biphenyl-methyl]-imidazole-5-carboxylic acid, 1-[(isopropoxy)-carbonyloxy]methyl ester] | – | no obvious electrostatic phenomenon | –
4 | CCCCc1nc(Cl)c(C(=O)OCOC(=O)OC(C)C)n1Cc1ccc(-c2ccccc2-c2nnn[nH]2)cc1 [Patent Crystal, 2-butyl-4-chloro-1-[2′-(1H-tetrazol-5-yl)-1,1′-biphenyl-methyl]-imidazole-5-carboxylic acid, 1-[(isopropoxy)-carbonyloxy]methyl ester, reference compound] | 0.51 | obvious electrostatic phenomenon | 48-53 °
